Data on one compound can be found in PMC4368788, “Depsides: Lichen Metabolites Active against Hepatitis C Virus” (PLoS ONE, 2015).

Structures are written as SMILES. “Also recorded” adds a separate entry of the source.

For data set [1], the system named is HCVcc. Kind of data set: Anti-HCV activity: HCVcc expressing Renilla luciferase in Huh-7.5.1 cells, luciferase readout. Type of data set: cell-based, hepatitis C virus. As for the experimental part: Huh-7.5.1 cells were maintained in Dulbecco's modified Eagle's medium (DMEM) containing 4.5 g/l D-glucose, 4 mM L-glutamine (Life Technologies), supplemented with 100 units/mL penicillin (Life Technologies), 100 μg/mL streptomycin (Life Technologies), non-essential amino acids (Sigma-Aldrich), 1 mM Hepes (Life Technologies) and 10% heat-inactivated fetal calf serum (FCS, Hyclone). […] In cell viability and HCV in vitro propagation experiments, the final concentration of DMSO was systematically adjusted to 0.1%. We checked that this amount of DMSO had no effect on the biological cycle of HCVcc in vitro (data not shown).
(§1) HCVcc was generated from the FL-J6/JFH-5’C19Rluc2AUbi construct, a monocistronic, full-length HCV genome that expresses Renilla luciferase. It was produced and titrated as described elsewhere, except for the readout for luciferase activity measurement. Cell viability was evaluated with the Cell Proliferation Reagent WST-1 (Roche), according to the manufacturer’s instructions. Luciferase assays were performed according to the manufacturer’s instructions (Promega) and measurements were performed on a Centro XS3 LB960 luminometer (Berthold Technologies).
(§2) Cell viability and viral replication data from at least three independent experiments were analyzed. The IC50 values of the compounds were determined from dose-response curves generated with seven to 12 concentrations of each compound. Curves were fitted to the data points by nonlinear regression analysis and IC50 values were interpolated from the resulting curves with GraphPad Prism 5.00 software.
We evaluated the anti-HCV activity of the 10 atranorin-related compounds, using a virus grown in cell culture (HCVcc) with a modification of its genome resulting in expression of the Renilla luciferase reporter gene. […] These two compounds are known to interfere with the entry and replication steps of viral cycle, respectively. The maximum dose of each tested compound was 100 μM, because most of these molecules became insoluble in aqueous solution at higher concentrations. The first experimental procedure used involved the preincubation of human hepatic Huh-7.5.1 cells for 1 h with various doses of the molecules. The cells were then cultured in the presence of both the molecules tested and the virus, for an additional 48 h. At the end of the incubation period, we assessed cell viability and viral replication. This protocol made it possible to test the effects of molecules on both virus entry and replication. […] Remarkably, compound 6 tended to give a slightly, but reproducibly higher viability signal when used at high doses, with a peak at about 50 μM. […] At concentrations greater than 50 μM, cytotoxic effects emerged, as shown by the decrease of the viability signal.

Another data set concerns Huh-7.5.1 cells. Kind of data set: in vitro. Type of data set: cell-based, human. Particulars: half-maximal cytotoxicity concentration, Huh-7.5.1 cells, 48 h; mean ± SEM; maximum dose tested 100 μM. How it is done:
(§3) Huh-7.5.1 cells were maintained in Dulbecco's modified Eagle's medium (DMEM) containing 4.5 g/l D-glucose, 4 mM L-glutamine (Life Technologies), supplemented with 100 units/mL penicillin (Life Technologies), 100 μg/mL streptomycin (Life Technologies), non-essential amino acids (Sigma-Aldrich), 1 mM Hepes (Life Technologies) and 10% heat-inactivated fetal calf serum (FCS, Hyclone). […] In cell viability and HCV in vitro propagation experiments, the final concentration of DMSO was systematically adjusted to 0.1%.
as §1, §2
(§4) We evaluated the anti-HCV activity of the 10 atranorin-related compounds, using a virus grown in cell culture (HCVcc) with a modification of its genome resulting in expression of the Renilla luciferase reporter gene. […] These two compounds are known to interfere with the entry and replication steps of viral cycle, respectively. […] The first experimental procedure used involved the preincubation of human hepatic Huh-7.5.1 cells for 1 h with various doses of the molecules. The cells were then cultured in the presence of both the molecules tested and the virus, for an additional 48 h. At the end of the incubation period, we assessed cell viability and viral replication. This protocol made it possible to test the effects of molecules on both virus entry and replication.

Another data set can be described thus: in vitro. Type of data set: cell-based, human. The settings on record: human, mean ± SEM. How it is done: as §3, §1, §2, §4
The subject of data set [2] is HCVcc. Kind of data set: Targeted stage of HCV life cycle: compounds present during inoculation (I), replication (R) or both (I/R), luciferase readout. Type of data set: cell-based, hepatitis C virus. The settings on record: compounds present during I (17 h), R (30 h) or I/R. How it is done:
(§5) An experimental procedure was designed to determine the inhibitor class (entry or replication) to which compounds 1, 5 and 6 belonged. HCVcc were added to the cell culture during a limited time window (around 17 h). The cells were then washed to eliminate viruses from the inoculum and viral replication was allowed to take place for an additional 30 h. The selected compounds were present in the culture medium during inoculation (I), replication (R), or both these phases (inoculation and replication, I/R). […] In terms of antiviral activity, we expected to obtain two inhibition profiles for the luminescence signal, depending on the step of the viral lifecycle targeted by the drug (Fig. 4B). […] The inhibitory effect on the establishment of replication (R conditions) observed at high doses was probably due principally to the inhibition of new infection cycles initiated by virions produced by cells infected with the inoculum. A different profile was obtained for telaprevir. […] Its presence in the medium from inoculation onwards prevented the priming of the infection process at the viral polyprotein maturation step, which normally takes place after the translation of the HCV genome issued from the infecting virus. This maturation step is also repeated during the replication phase, for amplification of the viral genome and virion assembly. It is therefore not surprising that inhibition was strongest when telaprevir was present throughout the viral lifecycle (I/R), as there was probably an additive effect. […] The chemical group in this position seems to influence not only the potency of the molecule, but also its mechanism of action. Further studies are required to identify the processes involved because, for example, we cannot rule out a role in the inhibition of viral entry for compounds 5 and 6, even though they appeared to act as replication inhibitors in this experiment. It could be hypothesized that the replacement of a methyl or hydroxymethyl by an aldehyde group in position C-3 would lead to a loss of replication inhibition, but maintenance of the ability to inhibit viral entry.
(§6) Fig 4 Effects of compounds 1, 5 and 6 on cell viability and HCV propagation in vitro. One day after seeding at 50,000 cells/cm^2, Huh-7.5.1 cells were infected with HCVcc at a MOI ~ 0.03 for 17 h (inoculation phase: I). The inoculum was removed and cell cultures were washed before the addition of new medium and incubation for an additional 30 h (replication phase: R). Compounds were present at various concentrations either during both phases (I/R: black circles and solid lines) or during only one phase (I: black squares and dotted lines; R: black triangles and dashed lines). (A) Cell viability and (B) viral replication were assessed at the end of the incubation period. Results are expressed as percentages (mean ± SEM; n = 3) of the mean values obtained for the respective control cultures, in which cells were incubated with vehicle (0.1% DMSO) alone.

Data set [3] in a line: Cell viability in the inoculation/replication (I, R, I/R) procedure. The class given is cell-based, human. The settings on record: human; I, R, I/R incubation conditions. As for the experimental part: as §5
as §6, with “Compounds were present at various concentrations either during both phases (I/R: black circles and solid lines) or during only one phase (I: black squares and dotted lines; R: black triangles and dashed lines).” left out

In the data set on HCVcc [1] (Hepatitis C virus, Huh-7.5.1 cells infected with HCVcc, 1 h preincubation then 48 h with virus, mean ± SEM, three experiments), `COC(=O)c1c(C)cc(OC(=O)c2c(C)cc(O)c(CO)c2O)c(C)c1O` [Compound 5, Methyl-8-hydroxy-4-O-demethylbarbatate] returned a half-maximal inhibitory concentration (IC50) of 11.8 ± 1.1 µM. The “SI (selectivity index)” value with HCVcc [1] (ratio of CC50 to IC50) is 8.9. The CC50 in the data set with Huh-7.5.1 cells is 106 ± 7.3 µM; in data set [3], approximately 100 µM. This compound also yielded a CC50 at 48 h in the data set “in vitro” (half-maximal cytotoxicity concentration, Huh-7.5.1 cells, 48 h, maximum dose tested 100 μM) of 106 µM. Further, the viability at 48 h, 50 µM in “in vitro” (50 μM, percentage of vehicle (0.1% DMSO) control, n = 3) turned out to be 88.4 ± 7.3%. In the data set “in vitro” (100 μM, percentage of vehicle (0.1% DMSO) control, n = 3), this compound came in with a viability at 48 h, 100 µM of 55.8 ± 5.9%. For the same compound, the “Inhibition profile / step of HCV lifecycle targeted” value with HCVcc [2] was “interfered with viral replication; also recorded: profiles typical of replication inhibitors”.

The IC50 is the concentration needed to halve the response being measured. A low value points to greater potency in that assay. The term CC50 denotes the concentration at which the toxic effect on the cells reaches its halfway point. As usually defined, the viability is a per cent measure of how many cells are alive, often set against a control. Read a high viability as less harm to the cells.
